Like-named read-outs stand apart in the source and are kept apart here.
Legend:
lympha cells = experiment: Mitogenic activity in vitro (Blastogenic index); assay type: cell-based, C3H/He male mice; details: Mus musculus, Lymphocyte
Experimental: (1) Mitogenic activity in vitro
Mitogenic activity means activity of activating mitogenic cell division, and in this test system, the amount of tymidine taken into lympha cells was measured and a ratio determined against a blank control call (Blastogenic index) was calculated.
For example, adding the compound prepared in example 1(c) to the test system induced 30 times the amount of tymidine taken into the lympha cells versus the control.
The amounts were measured by density of a radiolabel.
Mytogenic activity in vitro was measured by the following method (See Procedure Method of Immunoexperiment pp 315 published by Japan Immunology Society).
C3H/He male mice 6 weeks old were killed by bloodletting, and their spleens were isolated and homogenized. Homogenizing liquids were filtered with gauze, and suspending cells were prepared with PBS solution. After washing, lymphacytes fractions were gathered with lympholight M. Lymphacytes were suspended in RPMI 1640 cultivation solution (10% FEBS), and the solution was divided into 5×10^5 cells/180 μl/wells. Ten times concentration of the terminal concentration (1 μg/ml) of the compounds of the present invention were added with 20 μl portions to each of the wells.
After cultivation, ^3 H-tymidine 0.5 μCi/20 μl was added to the each cells. Cultivation was continued at 37° C. for another 24 hrs, and amounts of ^3 H-tymidine taken into the cells were measured. Mitogenic activities were calculated as by Blastogenic index in as follows. [formula]

Mice L-M cells = experiment: Inducing activities of TNF in vitro (cytotoxicity of serum from treated mice); assay type: cell-based, mice (ICR male mice serum; mice L-M cells); details: Mus musculus, iv; 10 μg via tail vein, serum 90 mins after; L-M cells 48 hrs; read-out: Cytotoxicities
Experimental: (2) Inducing activities of TNF in vitro
Inducing activity of TNF in vitro was measured by the following test system.
Corye parvum (manufactured by Ribi Immuno Chem. Research Inc.) was administered in ICR male mice 6-weeks old through the tail vein as priming agent. Ten days later, the compounds of the present invention (10 μg) were administered through tail vein as eliciting agent. 90 mins after the administration, blood was collected from the hearts, and blood serums were separated.
Mice L-M cells (10^4 /100 μl/well) suspended in a mixture of the diluted serum solution (100 μl/well) and RPMI 1640 cultivating solution (10% FEBS and 0.2% glucose; manufactured by Nissui Pharmaceutical Co.) were cultivated in an atmosphere of a mixed gas of 5% CO2 -[…], for 48 hrs at 37° C., after adding ^3 H-tymidine taken (0.5 μCi/20 μl/well). Amounts of ^3 H-tymidine taken into cells during the cultivation were measured.
Inducing activities of TNF were measured by cytotoxicity calculated as follows: [formula]

Meth-A sarcoma = experiment: Anti-tumor effect on Balb/C mice inoculated with Meth-A Sarcoma; assay type: in vivo, female Balb/C mice; details: for Apperarent tumor weight: g ± standard error; for Survival period: iv tail vein Day 7, 9, 12, day ± standard error
Experimental: (1) Anti-tumor effect on Balb/C mice inocudlated with Meth-A Sarcoma
Anti-tumor effect was measured by the following procedure.
Tumor cells which had been maintained in ascites of Balb/C mouse generation after generation was used. One group is consisting of eight female Balb/C mice. Meth-A sarcoma tumor (1×10^5 cells/0.05 ml) was inoculated into left side of female mice of 7-week old (body weight: 18-20 g). Seven day after, when tumor size came to 6~9 mm, test compound was administered into tail vein first (day 7) and then administered two times (total three times: Day 7, 9, 12). Dose of test compound is 3 and 10 mg/kg or 3, 10 and 30 mg/kg and each test compound solution volume was 10 ml/kg. Anti-tumor effect is estimated by survival period (from inoculation day to death day) and tumor apparent weight. [formula] Test results about survival period and tumor appearent weight are shown in the following Tables II(1) and II(2), respectively.
In experiments, statistic analysis was done with unpaired Student's t(two tailed)-test. […] P values lower than 0.05 were judged to be significant.

[1] = Acute toxicity (LD50), intravenous in mice; details: mouse, in vivo
Experimental: For example, the values of LD50 of the compound prepared in example 1(c) was more than 300 mg/kg animal body weight by intravenous administration in mice.

[2] = terminal concentration 1 μg/ml, ratio of 3H-tymidine uptake vs blank control, read-out: Blastgenic Index

`CCCCCCCCCCCCCC(=O)OC(CCCCCCCCCCC)CC(=O)N[C@H]1COC[C@@H](OS(=O)(=O)O)[C@@H]1OC(=O)CCCCCCCCCCCCC` (single isomer, unassigned) [3(b), 2-deoxy-2-[3-tetradecanoyloxytetradecanoyl]amino-3-O-tetradecanoyl-4-O-sulfo-1,5-anhydro-D-xylitol] showed a fold induction at 1 µg/mL (lympha cells; [2]) of 13.7 and a cytotoxicity at 0.01 mg (Mice L-M cells) of 30.2%.
`CCCCCCCCCCC[C@@H](CC(=O)N[C@H]1C(O)O[C@H](CO)[C@@H](OS(=O)(=O)O)[C@@H]1OC(=O)CCCCCCCCc1ccccc1)OC(=O)CCCCCCCCc1ccccc1` (stereo partly drawn) [1(c), 2-deoxy-2-[3S-(9-phenylnonanoyloxy)tetradecanoyl]amino-3-O-(9-phenylnonanoyl)-4-O-sulfo-D-glucopyranose] showed a fold induction at 1 µg/mL (lympha cells; compound added to the test system, 1 μg/ml, read-out: amount of tymidine taken into the lympha cells versus the control) of 30, a fold induction at 1 µg/mL (lympha cells; [2]) of 30 and an Apperarent tumor weight (Meth-A sarcoma; 3 mg/kg iv, Day 7) of 0.200 ± 0.074 g. The Apperarent tumor weight (Meth-A sarcoma; 3 mg/kg iv, Day 10) was 0.240 ± 0.118 g, the Apperarent tumor weight (Meth-A sarcoma; 3 mg/kg iv, Day 13) was 0.314 ± 0.206 g and the Apperarent tumor weight (Meth-A sarcoma; 3 mg/kg iv, Day 16) was 0.580 ± 0.412 g. It also gave an Apperarent tumor weight (Meth-A sarcoma; 10 mg/kg iv, Day 7) of 0.199 ± 0.044 g, an Apperarent tumor weight (Meth-A sarcoma; 10 mg/kg iv, Day 10) of 0.156 ± 0.084 g and an Apperarent tumor weight (Meth-A sarcoma; 10 mg/kg iv, Day 13) of 0.120 ± 0.099 g. For the same compound, the Apperarent tumor weight (Meth-A sarcoma; 10 mg/kg iv, Day 16) was 0.208 ± 0.253 g, the “effect on prolongation of life” value (Meth-A sarcoma; at the dose of 10 mg/kg) was “significant effect” and the “effect on tumore regression” value (Meth-A sarcoma; at the dose of 10 mg/kg) was “significant effect”. The Survival period (Meth-A sarcoma; dose 3 (mg/kg)) was 46.8 ± 6.3 days, the Survival period (Meth-A sarcoma; dose 10 (mg/kg)) was 62.8 ± 18.8 days and the LD50 [1] was greater than 300 mg/kg. It also gave a cytotoxicity at 0.01 mg (Mice L-M cells) of 86%.
Compound `CCCCCCCCCCC[C@@H](CC(=O)N[C@H]1C(O)O[C@H](CO)[C@@H](OS(=O)(=O)O)[C@@H]1OC(=O)CCCCCCCCCc1ccccc1)OC(=O)CCCCCCCCCc1ccccc1` (stereo partly drawn) [1(d), 2-deoxy-2-[3S-(10-phenyldecanoyloxy)tetradecanoyl]amino-3-O-(10-phenyldecanoyl)-4-O-sulfo-D-glucopyranose] has a fold induction at 1 µg/mL (lympha cells; [2]) of 28 and a cytotoxicity at 0.01 mg (Mice L-M cells) of 95%.
Compound `CCCCCCCCCCC[C@H](CC(=O)N[C@H]1C(O)O[C@H](CO)[C@@H](OS(=O)(=O)O)[C@@H]1OC(=O)CCCCCCCCc1ccccc1)OC(=O)CCCCCCCCc1ccccc1` (stereo partly drawn) [1(h), 2-deoxy-2-[3R-(9-phenylnonanoyloxy)tetradecanoyl]amino-3-O-(9-phenylnonanoyl)-4-O-sulfo-D-glucopyranose] has a fold induction at 1 µg/mL (lympha cells; [2]) of 37 and a cytotoxicity at 0.01 mg (Mice L-M cells) of 81%.
For `CCCCCCCCCCC[C@@H](CC(=O)N[C@H]1C(O)O[C@H](CO)[C@@H](OS(=O)(=O)O)[C@@H]1OC(=O)CCCCCCCCc1ccc(Cl)cc1)OC(=O)CCCCCCCCc1ccc(Cl)cc1` (stereo partly drawn) [1(j), 2-deoxy-2-[3S-[9-(4-chlorophenyl)nonanoyloxy]tetradecanoyl]amino-3-O-[9-(4-chlorophenyl)nonanoyl]-4-O-sulfo-D-glucopyranose], the fold induction at 1 µg/mL (lympha cells; [2]) was 25 and the cytotoxicity at 0.01 mg (Mice L-M cells) was 69%.
Work on `O=C(C[C@H](CCCCCCc1ccccc1)OC(=O)CCCCCCCCc1ccccc1)N[C@H]1C(O)O[C@H](CO)[C@@H](OS(=O)(=O)O)[C@@H]1OC(=O)CCCCCCCCc1ccccc1` (stereo partly drawn) [1(r), 2-deoxy-2-[3S-(9-phenylnonanoyloxy)-9-phenylnonanoyl]amino-3-O-(9-phenylnonanoyl)-4-O-sulfo-D-glucopyranose] yielded a fold induction at 1 µg/mL (lympha cells; [2]) of 17 and a cytotoxicity at 0.01 mg (Mice L-M cells) of 86%.
With `CCCCCCCCCCC[C@H](CC(=O)N[C@H]1CO[C@H](CO)[C@@H](OS(=O)(=O)O)[C@@H]1OC(=O)CCCCCCCCc1ccccc1)OC(=O)CCCCCCCCc1ccccc1` [1(s), 2-deoxy-2-[3R-(9-phenylnonanoyloxy)tetradecanoyl]amino-3-O-(9-phenylnonanoyl)-4-O-sulfo-1,5-anhydro-D-glucitol] the fold induction at 1 µg/mL (lympha cells; [2]) was 58 and the cytotoxicity at 0.01 mg (Mice L-M cells) was 100%.
With `CCCCCCCCCCCCCC(=O)O[C@H]1[C@H](OS(=O)(=O)O)[C@@H](CO)OC(O)[C@@H]1NC(=O)c1ccc(OCCCCCCCCCC)c(OCCCCCCCCCC)c1` (stereo partly drawn) [Example 4, 2-deoxy-2-(3,4-didecyloxybenzoyl)amino-3-O-tetradecanoyl-4-O-sulfo-D-glycopyranose] the fold induction at 1 µg/mL (lympha cells; [2]) was 27.7, the Apperarent tumor weight (Meth-A sarcoma; 3 mg/kg iv, Day 7) was 0.212 ± 0.042 g and the Apperarent tumor weight (Meth-A sarcoma; 3 mg/kg iv, Day 10) was 0.469 ± 0.169 g. It also gave an Apperarent tumor weight (Meth-A sarcoma; 3 mg/kg iv, Day 13) of 0.650 ± 0.162 g, an Apperarent tumor weight (Meth-A sarcoma; 3 mg/kg iv, Day 16) of 1.004 ± 0.434 g and an Apperarent tumor weight (Meth-A sarcoma; 10 mg/kg iv, Day 7) of 0.205 ± 0.022 g. For the same compound, the Apperarent tumor weight (Meth-A sarcoma; 10 mg/kg iv, Day 10) was 0.361 ± 0.056 g, the Apperarent tumor weight (Meth-A sarcoma; 10 mg/kg iv, Day 13) was 0.455 ± 0.116 g and the Apperarent tumor weight (Meth-A sarcoma; 10 mg/kg iv, Day 16) was 0.846 ± 0.233 g. The “effect on prolongation of life” value (Meth-A sarcoma; at the dose of 3 mg/kg) was “significant effect”, the “effect on tumore regression” value (Meth-A sarcoma; at the dose of 3 mg/kg) was “significant effect” and the Survival period (Meth-A sarcoma; dose 3 (mg/kg)) was 48.5 ± 8.7 days. It also gave a Survival period (Meth-A sarcoma; dose 10 (mg/kg)) of 46.6 ± 7.2 days and a cytotoxicity at 0.01 mg (Mice L-M cells) of 20%.

From patent publication USRE36385E, “Glucopyranose derivatives” (Ono Pharmaceutical Co., Ltd., priority 1985, dated 1999)
